Measured values taken from PubChem BioAssay AID220 (DTP/NCI, 2004).
Values joined by “and” are separate entries in the source; they are usually repeats but may differ in a detail not shown here. Identical values can stand only once. Results filed as inconclusive are left out.

Tested on: CD8F1 mice, subcutaneous mammary adenocarcinoma, T/C%
Test: NCI In Vivo Anticancer Drug Screen. Data for tumor model Mammary Adenocarcinoma CD8F1 (subcutaneous) in CD8F1
Details: higher = larger tumour
Experimental: The antitumor activity of compounds was measured in mice bearing transplantable tumors. Survival or tumor size were measured and the results are expressed as the measurement made in the treated group (T) divided by the measurement made in the vehicle treated control group (C). The tumor model used in this assay is Mammary Adenocarcinoma CD8F1 (subcutaneous) in CD8F1

[1] = endpoint: median tumor weight (est.), dose: 12.5 mg/kg/injection, schedule: Q07DX005 (ip), vehicle: saline with Tween-80
[2] = endpoint: median tumor weight (est.), dose: 25.0 mg/kg/injection, schedule: Q07DX005 (ip), vehicle: saline with Tween-80
[3] = endpoint: median tumor weight (est.), dose: 100.0 mg/kg/injection, schedule: Q07DX005 (ip), vehicle: saline with Tween-80
[4] = endpoint: median tumor weight (est.), dose: 12.5 mg/kg/injection, schedule: Q07DX005 (ip), vehicle: suspension in saline
[5] = endpoint: median tumor weight (est.), dose: 50.0 mg/kg/injection, schedule: Q07DX005 (ip), vehicle: suspension in saline
[6] = endpoint: median tumor weight change, dose: 62.5 mg/kg/injection, schedule: Q01DX001 (ip), vehicle: saline with Tween-80
[7] = endpoint: median tumor weight change, dose: 250.0 mg/kg/injection, schedule: Q01DX001 (ip), vehicle: saline with Tween-80
[8] = endpoint: median tumor weight change, dose: 500.0 mg/kg/injection, schedule: Q01DX001 (ip), vehicle: saline with Tween-80
[9] = endpoint: median tumor weight (est.), dose: 25.0 mg/kg/injection, schedule: Q07DX005 (ip), vehicle: suspension in saline
[10] = endpoint: median tumor weight (est.), dose: 100.0 mg/kg/injection, schedule: Q07DX005 (ip), vehicle: suspension in saline
[11] = endpoint: median tumor weight change, dose: 125.0 mg/kg/injection, schedule: Q01DX001 (ip), vehicle: saline with Tween-80

With `CC[C@@]1(O)C[C@H](OC2CC(N(C)C)C(OC3CC(O)C(O[C@@H]4O[C@@H](C)C(=O)C=C4N)C(C)O3)C(C)O2)c2c(cc3c(c2O)C(=O)c2c(O)ccc(O)c2C3=O)[C@H]1C(=O)OC` (stereo not given in full) the T/C (endpoint: median tumor weight (est.), dose: 0.09 mg/kg/injection, schedule: Q07DX005 (ip), vehicle: suspension in saline) was 180 % of control, the T/C (endpoint: median tumor weight (est.), dose: 0.18 mg/kg/injection, schedule: Q07DX005 (ip), vehicle: suspension in saline) was 168 % of control and the T/C (endpoint: median tumor weight (est.), dose: 0.37 mg/kg/injection, schedule: Q07DX005 (ip), vehicle: suspension in saline) was 240 % of control. For the same molecule, the T/C (endpoint: median tumor weight (est.), dose: 0.38 mg/kg/injection, schedule: Q07DX005 (ip), vehicle: suspension in saline) was 37 % of control, the T/C (endpoint: median tumor weight (est.), dose: 3.0 mg/kg/injection, schedule: Q07DX005 (ip), vehicle: suspension in saline) was 50 % of control and 69 % of control and the T/C (endpoint: median tumor weight (est.), dose: 1.0 micrograms/kg/injection, schedule: Q07DX005 (ip), vehicle: Klucel (hydroxypropylcellulose) (HPC)) was 106 % of control. For the same molecule, the T/C (endpoint: median tumor weight (est.), dose: 4.0 micrograms/kg/injection, schedule: Q07DX005 (ip), vehicle: Klucel (hydroxypropylcellulose) (HPC)) was 123 % of control.

`COC(C(=O)C(O)C(C)O)C1CC2C=C3C=C(OC4CC(OC5CC(O)C(OC)C(C)O5)C(OC(C)=O)C(C)O4)C(C)C(=O)C3=C(O)C2=C(O)C1OC1CC(OC2CC(OC3CC(C)(O)C(O)C(C)O3)C(O)C(C)O2)C(O)C(C)O1` (stereo not given) was tested, and the T/C (endpoint: mean tumor weight, dose: 1.0 mg/kg/injection, schedule: Q07DX005 (ip), vehicle: saline) was 73 % of control, the T/C (endpoint: mean tumor weight, dose: 2.0 mg/kg/injection, schedule: Q07DX005 (ip), vehicle: saline) was 64 % of control and the T/C (endpoint: median tumor weight (est.), dose: 0.5 mg/kg/injection, schedule: Q07DX005 (ip), vehicle: saline with Tween-80) was 58 % of control. For the same molecule, the T/C (endpoint: median tumor weight (est.), dose: 1.0 mg/kg/injection, schedule: Q07DX005 (ip), vehicle: saline with Tween-80) was 78 % of control and the T/C (endpoint: median tumor weight (est.), dose: 2.0 mg/kg/injection, schedule: Q07DX005 (ip), vehicle: saline with Tween-80) was 89 % of control.

For `c1cnc2ncncc2n1`, the T/C [1] was 84 % of control and 100 % of control, the T/C [2] was 93 % of control and 100 % of control and the T/C (endpoint: median tumor weight (est.), dose: 50.0 mg/kg/injection, schedule: Q07DX005 (ip), vehicle: saline with Tween-80) was 69 % of control and 84 % of control. The T/C [3] was 92 % of control and 99 % of control.

For `O=c1n(CC2CO2)c(=O)n(CC2CO2)c(=O)n1CC1CO1` (stereo not given), the T/C (endpoint: median tumor weight (est.), dose: 12.5 mg/kg/injection, schedule: Q07DX004 (ip), vehicle: saline with Tween-80) was 64 % of control, the T/C [1] was 17 % of control and the T/C [4] was 69 % of control and 55 % of control. For the same molecule, the T/C (endpoint: median tumor weight (est.), dose: 25.0 mg/kg/injection, schedule: Q07DX004 (ip), vehicle: saline with Tween-80) was 79 % of control, the T/C [2] was 4 % of control and the T/C (endpoint: median tumor weight (est.), dose: 50.0 mg/kg/injection, schedule: Q07DX004 (ip), vehicle: saline with Tween-80) was 42 % of control. For the same molecule, the T/C [5] was 12 % of control and 35 % of control.

For `O=[N+]([O-])c1ccc(Cl)c([N+](=O)[O-])c1`, the T/C (endpoint: median tumor weight (est.), dose: 15.0 mg/kg/injection, schedule: Q07DX005 (ip), vehicle: saline with Tween-80) was 78 % of control, the T/C (endpoint: median tumor weight (est.), dose: 120.0 mg/kg/injection, schedule: Q07DX005 (ip), vehicle: saline with Tween-80) was 61 % of control and 83 % of control and the T/C (endpoint: median tumor weight (est.), dose: 240.0 mg/kg/injection, schedule: Q07DX005 (ip), vehicle: saline with Tween-80) was 65 % of control.

`CN=S(=O)(OCCCCCOS(=O)(=NC)c1ccccc1)c1ccccc1` (stereo not given) was tested, and the T/C (endpoint: median tumor weight change, dose: 62.0 mg/kg/injection, schedule: Q01DX001 (ip), vehicle: saline with Tween-80) was 121 % of control, the T/C [6] was 59 % of control and the T/C [7] was 63 % of control and 83 % of control. The T/C [8] was 20 % of control.

`O=CC(S)CO` (stereo not given) was tested, and the T/C [4] was 165 % of control, the T/C [9] was 231 % of control and 88 % of control and the T/C [5] was 112 % of control. The T/C (endpoint: median tumor weight (est.), dose: 200.0 mg/kg/injection, schedule: Q07DX005 (ip), vehicle: suspension in saline) was 102 % of control.

With `O=C(NP(=O)(N1CC1)N1CC1)c1cc(I)ccc1I` the T/C (endpoint: median tumor weight (est.), dose: 16.0 mg/kg/injection, schedule: Q07DX005 (ip), vehicle: saline with Tween-80) was 68 % of control, the T/C (endpoint: median tumor weight (est.), dose: 32.0 mg/kg/injection, schedule: Q07DX005 (ip), vehicle: saline with Tween-80) was 77 % of control and the T/C (endpoint: median tumor weight (est.), dose: 64.0 mg/kg/injection, schedule: Q07DX005 (ip), vehicle: saline with Tween-80) was 49 % of control. The T/C (endpoint: median tumor weight (est.), dose: 128.0 mg/kg/injection, schedule: Q07DX005 (ip), vehicle: saline with Tween-80) was 6 % of control.

For `Oc1ccccc1C=NCCC[N-]CCCN=Cc1ccccc1O.[Co]`, the T/C [4] was 162 % of control, the T/C [9] was 223 % of control and the T/C [5] was 180 % of control. The T/C [10] was 97 % of control.

With `CC(=O)N(C)O` the T/C [11] was 80 % of control, the T/C [7] was 63 % of control and the T/C [8] was 50 % of control.

For `O=S(=O)(CCl)OCCCl`, the T/C [6] was 56 % of control, the T/C [11] was 60 % of control and the T/C [7] was 69 % of control.

For `CCCCCCCCCCCCSC1=C(Cl)C(=O)C(OC)=C(OC)C1=O`, the T/C [2] was 89 % of control and the T/C [3] was 70 % of control.

In the case of `C[C@]12CCC(=O)C(O)=C1CC[C@@H]1[C@@H]2CC[C@]2(C)C(=O)CC[C@@H]12`, the T/C (endpoint: median tumor weight (est.), dose: 100.0 mg/kg/injection, schedule: Q01DX001 (ip), vehicle: Klucel (hydroxypropylcellulose) (HPC)) was 182 % of control, the T/C (endpoint: median tumor weight (est.), dose: 100.0 mg/kg/injection, schedule: Q07DX005 (ip), vehicle: Klucel (hydroxypropylcellulose) (HPC)) was 32 % of control and the T/C (endpoint: median tumor weight (est.), dose: 200.0 mg/kg/injection, schedule: Q01DX001 (ip), vehicle: Klucel (hydroxypropylcellulose) (HPC)) was 9 % of control. The T/C (endpoint: median tumor weight (est.), dose: 200.0 mg/kg/injection, schedule: Q07DX005 (ip), vehicle: Klucel (hydroxypropylcellulose) (HPC)) was 62 % of control, the T/C (endpoint: median tumor weight (est.), dose: 400.0 mg/kg/injection, schedule: Q01DX001 (ip), vehicle: Klucel (hydroxypropylcellulose) (HPC)) was 189 % of control and the T/C (endpoint: median tumor weight (est.), dose: 400.0 mg/kg/injection, schedule: Q07DX005 (ip), vehicle: Klucel (hydroxypropylcellulose) (HPC)) was 32 % of control. For the same molecule, the T/C (endpoint: median tumor weight (est.), dose: 800.0 mg/kg/injection, schedule: Q01DX001 (ip), vehicle: Klucel (hydroxypropylcellulose) (HPC)) was 68 % of control, the T/C (endpoint: median tumor weight (est.), dose: 800.0 mg/kg/injection, schedule: Q07DX005 (ip), vehicle: Klucel (hydroxypropylcellulose) (HPC)) was 54 % of control and the T/C (endpoint: median tumor weight change, dose: 125.0 mg/kg/injection, schedule: Q01DX001 (ip), vehicle: Klucel (hydroxypropylcellulose) (HPC)) was 78 % of control. The T/C (endpoint: median tumor weight change, dose: 250.0 mg/kg/injection, schedule: Q01DX001 (ip), vehicle: Klucel (hydroxypropylcellulose) (HPC)) was 91 % of control, the T/C (endpoint: median tumor weight change, dose: 500.0 mg/kg/injection, schedule: Q01DX001 (ip), vehicle: Klucel (hydroxypropylcellulose) (HPC)) was 72 % of control and the T/C (endpoint: median tumor weight change, dose: 1000.0 mg/kg/injection, schedule: Q01DX001 (ip), vehicle: Klucel (hydroxypropylcellulose) (HPC)) was 68 % of control. For the same molecule, the T/C (endpoint: median tumor weight change, dose: 2000.0 mg/kg/injection, schedule: Q01DX001 (ip), vehicle: Klucel (hydroxypropylcellulose) (HPC)) was 72 % of control.

`C=C(C)[C@H]1CN[C@H](C(=O)O)[C@H]1CC(=O)O` was tested, and the T/C (endpoint: median tumor weight change, dose: 3.12 mg/kg/injection, schedule: Q01DX001 (ip), vehicle: saline) was 99 % of control, the T/C (endpoint: median tumor weight change, dose: 6.25 mg/kg/injection, schedule: Q01DX001 (ip), vehicle: saline) was 77 % of control and the T/C (endpoint: median tumor weight change, dose: 12.5 mg/kg/injection, schedule: Q01DX001 (ip), vehicle: saline) was 77 % of control. For the same molecule, the T/C (endpoint: median tumor weight change, dose: 25.0 mg/kg/injection, schedule: Q01DX001 (ip), vehicle: saline) was 73 % of control.

In the case of `OC1OC2COC(c3ccccc3)OC2C(O)C1O` (stereo not given), the T/C (endpoint: median tumor weight change, dose: 50.0 mg/kg/injection, schedule: Q01DX001 (ip), vehicle: water) was 105 % of control, the T/C (endpoint: median tumor weight change, dose: 100.0 mg/kg/injection, schedule: Q01DX001 (ip), vehicle: water) was 80 % of control and the T/C (endpoint: median tumor weight change, dose: 200.0 mg/kg/injection, schedule: Q01DX001 (ip), vehicle: water) was 101 % of control. The T/C (endpoint: median tumor weight change, dose: 400.0 mg/kg/injection, schedule: Q01DX001 (ip), vehicle: water) was 59 % of control, the T/C (endpoint: median tumor weight change, dose: 800.0 mg/kg/injection, schedule: Q01DX001 (ip), vehicle: water) was 62 % of control and the T/C (endpoint: median tumor weight change, dose: 1600.0 mg/kg/injection, schedule: Q01DX001 (ip), vehicle: water) was 90 % of control.

For `CNc1nc2c(N)ncnc2n1C1OC(CO)C(O)C1O` (stereo not given), the T/C [9] was 89 % of control and 91 % of control, the T/C [5] was 76 % of control and 96 % of control and the T/C [10] was 29 % of control.

For `Nc1ncnc2nc[nH]c12`, the T/C (endpoint: median tumor weight (est.), dose: 64.0 mg/kg/injection, schedule: Q07DX005 (ip), vehicle: Klucel (hydroxypropylcellulose) (HPC)) was 75 % of control and 77 % of control and 78 % of control and the T/C (endpoint: median tumor weight (est.), dose: 512.0 mg/kg/injection, schedule: Q07DX005 (ip), vehicle: Klucel (hydroxypropylcellulose) (HPC)) was 17 % of control and 31 % of control.

In the case of `CC(C)[C@](O)(C(=O)OCC1=CCN2CC[C@@H](O)[C@@H]12)[C@H](C)O`, the T/C (endpoint: median tumor weight change, dose: 125.0 mg/kg/injection, schedule: Q01DX001 (ip), vehicle: water) was 78 % of control and the T/C (endpoint: median tumor weight change, dose: 250.0 mg/kg/injection, schedule: Q01DX001 (ip), vehicle: water) was 179 % of control.
